These are literature values, as cited in US20250000865A1, “COMPOUND FOR REDUCING URIC ACID LEVELS” (NEWSOARA BIOPHARMA CO., LTD., priority 2021, published 2025).

Structures are written as SMILES.

For this data set the following is noted: cited from earlier work.

In the case of `CCc1oc2ccccc2c1C(=O)c1cc(Br)c(O)c(Br)c1` [benbromarone, Benzbromarone], the “sUA target level reached” value (after long-term treatment) is given as less than 6 mg/dL. Under “in vivo”, the side effects result was “hepatotoxicity and acute liver failure”.
